Test results as given in the SangsterLogP compilation.

Test: method code SF-GLC, from DOI: 10.1016/s0022-3565(25)29827-5, PMID: 4823294
Conditions: pH 7.4

Row | SMILES | logD
1 | CCCOC(N)=O | 0.36
2 | CCCCCCOC(N)=O | 1.85
3 | CCCCCCCCOC(N)=O | 2.84
4 | CC(C)(C)OC(N)=O | 0.48
5 | CC(C)(C)COC(N)=O | 0.94
6 | CCCCOC(N)=O | 0.85
7 | CCCCCOC(N)=O | 1.35
8 | CCC(C)(C)COC(N)=O | 1.45
9 | CCCCCCCOC(N)=O | 2.36
10 | NC(=O)OCc1ccccc1 | 1.23
